Measurements reported in US20250199015A1, “CYCLIN-DEPENDENT KINASE 2 INHIBITORS FOR MEDICAL TREATMENT” (INCYCLIX BIO, LLC, priority 2022, published 2025).
Entries after “also recorded” stand apart in the source; their conditions may differ. Where two headings read alike, the source gives them in different places.

How the values were obtained:
OVCAR-3 cells = assay: CellTiter Glo cell proliferation assay; assay type: cell-based, human; settings: six days
Description: Plates were returned to the incubator for six additional days. On day six post dosing, plates were removed and treated with CellTiter Glo reagent following manufacturer's specifications. Plates were incubated 45 minutes at room temperature and run on Biotek luminometer with 1 sec/well detection. Results were converted to Microsoft Excel and transferred to Graphpad Prism for analysis. […] These cell types are distinguished by either gained of cyclin E1 expression or activation (Kuramochi) or intrinsic amplification of cyclin E1 (OVCAR-3, COV318).
In a similar manner, OVCAR-3 cells were grown in RPMI-1640, 1× Glutamax, 10% FBS and 1×ITS at 37° C., 5% CO2. Cells were plated at 500 cells per well in white wall/clear bottom plates and incubated overnight. […] Plates returned to incubator for six additional days. On day six post dosing, plates were removed and treated with CellTiter Glo reagent following manufacturer's specifications. Plates were incubated 45 minutes at room temperature and run on Biotek luminometer with 1 sec/well detection. Results were converted to Microsoft Excel and transferred to GraphPad Prism for analysis.

pRb in Kuramochi cells = assay: Western blot pRb; assay type: cell-based, human; settings: 30-1000 nM, 24 hours
Description: An independent human ovarian carcinoma cell line, Kuramochi human ovarian carcinoma, was grown in RPMI-1640/1× Glutamax/10% fetal bovine serum and was plated at 300,000 cells/well in Corning 6 well tissue culture treated plates. Cells were incubated at 37° C. for 24 hours prior to addition of 2 replicates of 0.1% DMSO control and 1 replicate for each treatment. […] Cells were collected by washing each well twice with cold PBS, then scraping cells in the presence of 150 μL cold RIPA with protease and phosphatase inhibitors. Lysates were clarified by centrifugation at 14 kxg for 10 min at 4° C. and supernatants transferred to clean tubes. A BCA assay was performed to determine the protein concentration of each lysate. 30 μg of protein was mixed with sample buffer and reducing agent before being run on a 4-12% SDS-PAGE. Protein was transferred to a nitrocellulose membrane and blocked with LI-COR blocking buffer for 1 hour. Membranes were incubated overnight in primary antibody at 4° C. Following 3 washes with TBST, membranes were incubated for 45 minutes in LI-COR secondary antibodies. Following 2 washes in TBST, and one TBS wash, membranes were scanned using a LI-COR OdysseyCLx. Image studio was used for image analysis.

[1] = Respiratory safety pharmacology study; assay type: in vivo, rats; settings: any dose level
From the text: Safety pharmacology studies described more fully below included a functional observational battery (FOB) testing in a 28-day repeat-dose toxicity study in rats, electrocardiogram (ECG) evaluations in a 28-day repeat-dose toxicity study in dogs, and a single-dose respiratory safety pharmacology study in rats.

human OCT1 = target: T1, human OCT1 (Homo sapiens, UniProt O15245); assay: SLC transporter inhibition in HEK293 cells; assay type: in vitro ADME
T1 construct: expressed in transfected cells; host or cells: HEK293
T1 sequence (O15245 1-554): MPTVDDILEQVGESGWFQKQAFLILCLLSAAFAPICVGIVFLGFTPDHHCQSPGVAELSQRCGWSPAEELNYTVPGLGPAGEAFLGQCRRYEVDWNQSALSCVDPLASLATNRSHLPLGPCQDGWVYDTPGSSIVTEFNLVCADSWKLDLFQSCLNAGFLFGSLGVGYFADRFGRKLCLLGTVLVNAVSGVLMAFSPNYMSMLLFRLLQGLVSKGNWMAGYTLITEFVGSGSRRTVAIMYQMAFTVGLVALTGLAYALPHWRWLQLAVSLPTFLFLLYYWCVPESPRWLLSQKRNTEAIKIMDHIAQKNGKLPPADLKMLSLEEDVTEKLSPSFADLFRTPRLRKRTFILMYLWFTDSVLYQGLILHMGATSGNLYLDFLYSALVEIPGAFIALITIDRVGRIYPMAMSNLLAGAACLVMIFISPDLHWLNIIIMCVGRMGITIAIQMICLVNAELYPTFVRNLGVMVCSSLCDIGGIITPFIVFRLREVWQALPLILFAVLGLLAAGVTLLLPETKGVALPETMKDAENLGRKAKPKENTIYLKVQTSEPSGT

[2] = test system: pRb (S780) in therapy-resistant T47D/MCF7M cells; assay: Western blot Rb phosphorylation in therapy-resistant cells; assay type: cell-based, human; settings: combined with a CDK4/6i and/or estrogen therapy, 7 days
Description: Retinoblastoma (Rb) phosphorylation status analysis was then conducted in therapy-resistant cells by Western blotting. The T47D human breast carcinoma cell line was grown in RPMI-1640/1× Glutamax/1× Insulin/10% fetal bovine serum and was plated in Corning 6 well tissue culture treated plates. Cells were incubated at 37° C. for 24 hours prior to addition of treatment. Treatments were either DMSO, Compound I, or abemaciclib alone, or Compound I in combination with abemaciclib. Cells were treated for 7 days. All Abemaciclib treated cells received 500 nM Abemaciclib. […] Supernatant was removed, pellet resuspended in 250 μL of 1× Cell Lysis buffer (CST #9803, 1 tablet of PhosSTOP, 1 tablet of complete Protease Inhibitor Cocktail in 5 mL) then incubated on ice for 20 mins. Lysate was centrifuged at 21,000×g for 20 min at 4° C. and supernatant transferred to clean tubes. A DC assay was performed to determine the protein concentration of each lysate. 20 μg of protein was mixed with Laemelli buffer (+5% BME) before being run on homemade 15% gels. For samples normalized to cell number (p-RB and total RB), cells were washed in ice-cold PBS. Cells were counted and 500,000 cells were aliquoted into clean tubes. Cells were centrifuged at 500×g for 4 mins at 4° C. and supernatant discarded. Cell pellets were directly lysed in 100 μL of Laemmli buffer (+5% BME) and boiled at 95° C. for 12 min. […]

SMILES: NS(=O)(=O)c1ccc(Nc2ncc3cc4n(c3n2)C2(CCCCC2)C(=O)NN4)cc1 [Compound I]
- cell viability compared with palbociclib (OVCAR-3 cells; CCNE1 amplified): potently decreases cell viability
- IC50 (OVCAR-3 cells; Homo sapiens, OVCAR-3, 144 h): 0.049 µM
- pRb levels (pRb in Kuramochi cells): decreases pRb levels in a dose-dependent manner
- respiratory function [1]: did not affect; also recorded: not affected
- Maximum Percent inhibition (human OCT1; OCT1, HEK293 cells): 89%
- IC50 (human OCT1; OCT1, HEK293 cells, read-out: IC50): 5.5 µM
- IC50 (human OCT1; read-out: OCT1 IC50): 5.5 µM
- Rb phosphorylation in therapy-resistant cells [2]: prevents the phosphorylation
